Assay results from patent EP3138561A1 (priority 2014, dated 2015).
Read-outs that look alike come from different tables or passages of the source.

What was measured:
Burkholderia pyrrocinia = assay type: cell-based
[1] = tested on: Burkholderia pseudomallei; assay type: cell-based
[2] = tested on: Burkholderia vietnamiensis; assay type: cell-based
Burkholderia mallei = assay type: cell-based
Burkholderia stabilis = assay type: cell-based
Burkholderia multivorans = assay type: cell-based
Burkholderia cenocepacia = assay type: cell-based
Burkholderia ambifaria = assay type: cell-based
Burkholderia cepacia [3] = assay type: cell-based
Burkholderia gladioli = assay type: cell-based
Burkholderia dolosa = assay type: cell-based
Burkholderia anthina = assay type: cell-based
Burkholderia cepacia [4] = conditions: 0.02% solution
Pseudomonas aeruginosa = conditions: all three groups of patients; day 10 of therapy
[5] = tested on: bacteria of the Burkholderia genus; assay type: cell-based; conditions: all species of bacteria of the Burkholderia genus
[6] = white crystalline powder; cited from earlier work

With N=C(NCCCCCCNC(=N)NC(=N)Nc1ccc(Cl)cc1)NC(=N)Nc1ccc(Cl)cc1 [chlorhexidine bigluconate] as the molecule, how does the activity (Burkholderia pyrrocinia; Concentration 0,2%) read?
The activity was “+”.

What about the activity (Burkholderia pyrrocinia; Concentration 0.02%) of the same molecule?
The activity was “-”.

What about the activity (Burkholderia pyrrocinia; Concentration 0.05%) of the same molecule?
The activity was “-”.

What about the activity (Burkholderia pyrrocinia; Concentration 0.1%) of the same molecule?
Its activity is “+”.

What about the activity ([1]; Concentration 0,2%) of the same molecule?
The activity was “+”.

What about the activity ([1]; Concentration 0.02%) of the same molecule?
The activity was “-”.

And the activity ([1]; Concentration 0.05%)?
The activity was “-”.

And the activity ([1]; Concentration 0.1%)?
Its activity is “+”.

And the activity ([2]; Concentration 0,2%)?
The activity was “+”.

What about the activity ([2]; Concentration 0.02%) of the same molecule?
Its activity is “-”.

What about the activity ([2]; Concentration 0.05%) of the same molecule?
The activity was “+”.

What about the activity ([2]; Concentration 0.1%) of the same molecule?
The activity was “+”.

And the activity (Burkholderia mallei; Concentration 0,2%)?
Its activity is “+”.

And the activity (Burkholderia mallei; Concentration 0.02%)?
The activity was “-”.

What about the activity (Burkholderia mallei; Concentration 0.05%) of the same molecule?
Its activity is “-”.

What about the activity (Burkholderia mallei; Concentration 0.1%) of the same molecule?
Its activity is “+”.

And the activity (Burkholderia stabilis; Concentration 0,2%)?
The activity was “+”.

And the activity (Burkholderia stabilis; Concentration 0.02%)?
The activity was “+”.

What about the activity (Burkholderia stabilis; Concentration 0.05%) of the same molecule?
Its activity is “+”.

And the activity (Burkholderia stabilis; Concentration 0.1%)?
Its activity is “+”.

What about the activity (Burkholderia multivorans; Concentration 0,2%) of the same molecule?
The activity was “++”.

And the activity (Burkholderia multivorans; Concentration 0.02%)?
Its activity is “+”.

What about the activity (Burkholderia multivorans; Concentration 0.05%) of the same molecule?
Its activity is “+”.

What about the activity (Burkholderia multivorans; Concentration 0.1%) of the same molecule?
The activity was “++”.

And the activity (Burkholderia cenocepacia; Concentration 0,2%)?
Its activity is “+”.

And the activity (Burkholderia cenocepacia; Concentration 0.02%)?
Its activity is “+”.

And the activity (Burkholderia cenocepacia; Concentration 0.05%)?
The activity was “+”.

What about the activity (Burkholderia cenocepacia; Concentration 0.1%) of the same molecule?
Its activity is “+”.

What about the activity (Burkholderia ambifaria; Concentration 0,2%) of the same molecule?
Its activity is “+”.

And the activity (Burkholderia ambifaria; Concentration 0.02%)?
Its activity is “-”.

What about the activity (Burkholderia ambifaria; Concentration 0.05%) of the same molecule?
Its activity is “-”.

What about the activity (Burkholderia ambifaria; Concentration 0.1%) of the same molecule?
The activity was “+”.

What about the activity (Burkholderia cepacia [3]; Concentration 0,2%) of the same molecule?
The activity was “+”.

And the activity (Burkholderia cepacia [3]; Concentration 0.02%)?
The activity was “-”.

What about the activity (Burkholderia cepacia [3]; Concentration 0.05%) of the same molecule?
The activity was “-”.

And the activity (Burkholderia cepacia [3]; Concentration 0.1%)?
Its activity is “+”.

What about the activity (Burkholderia gladioli; Concentration 0,2%) of the same molecule?
Its activity is “++”.

And the activity (Burkholderia gladioli; Concentration 0.02%)?
The activity was “+”.

What about the activity (Burkholderia gladioli; Concentration 0.05%) of the same molecule?
Its activity is “+”.

What about the activity (Burkholderia gladioli; Concentration 0.1%) of the same molecule?
The activity was “+”.

And the activity (Burkholderia dolosa; Concentration 0,2%)?
The activity was “++”.

What about the activity (Burkholderia dolosa; Concentration 0.02%) of the same molecule?
Its activity is “+”.

What about the activity (Burkholderia dolosa; Concentration 0.05%) of the same molecule?
The activity was “+”.

And the activity (Burkholderia dolosa; Concentration 0.1%)?
The activity was “++”.

And the activity (Burkholderia anthina; Concentration 0,2%)?
The activity was “+”.

And the activity (Burkholderia anthina; Concentration 0.02%)?
The activity was “-”.

What about the activity (Burkholderia anthina; Concentration 0.05%) of the same molecule?
Its activity is “-”.

What about the activity (Burkholderia anthina; Concentration 0.1%) of the same molecule?
The activity was “+”.

Which results are given for CC1CCC(C(C)C)C(OC(=O)C[N+](C)(C)CCCCCCCCCC[N+](C)(C)CC(=O)OC2CC(C)CCC2C(C)C)C1 (stereo not drawn) [decamethoxine, 1,10-decamethylene-bis(N,N-dimethyl-menthoxycarbonylmethyl)ammonium dichloride]?
activity (Burkholderia pyrrocinia; Concentration 0,2%): +++; activity (Burkholderia pyrrocinia; Concentration 0.02%): +; activity (Burkholderia pyrrocinia; Concentration 0.05%): ++; activity (Burkholderia pyrrocinia; Concentration 0.1%): +++; Mean therapy time (Burkholderia cepacia [4]; ultrasonic inhalations): 7 days; negative side effects making withdrawal necessary (Burkholderia cepacia [4]; ultrasonic inhalations): No patients had negative side effects; patients with positive effect after decamethoxine therapy (Burkholderia cepacia [4]; ultrasonic inhalations): 41%; patients with body temperature normalized (Burkholderia cepacia [4]; ultrasonic inhalations 5-20 ml 1-2 times daily, days 3-5): 75%; tolerance to the therapy (Burkholderia cepacia [4]; ultrasonic inhalations, all patients): Good tolerance; patients with persistent cough (Burkholderia cepacia [4]; ultrasonic inhalations, days 3-5, character changed from "strong" to "moderate" or "weak"): 75%; patients in whom dyspnea persisted (Burkholderia cepacia [4]; ultrasonic inhalations, days 3-5, characterized as "insignificant"): 30%; patients complaining of moderate cough (Burkholderia cepacia [4]; ultrasonic inhalations, days 7-10): 14%; cases in which fine moist rales were heard (Burkholderia cepacia [4]; ultrasonic inhalations, physical examination): 43%; activity ([1]; Concentration 0,2%): +++; activity ([1]; Concentration 0.02%): +; activity ([1]; Concentration 0.05%): ++; activity ([1]; Concentration 0.1%): +++; activity ([2]; Concentration 0,2%): +++; activity ([2]; Concentration 0.02%): +; activity ([2]; Concentration 0.05%): ++; activity ([2]; Concentration 0.1%): +++; clinical outcome (clinical, laboratory and functional indices) (Pseudomonas aeruginosa): the patients were cured; bactericidal activity [5]: exhibits bactericidal activity; activity (Burkholderia mallei; Concentration 0,2%): +++; activity (Burkholderia mallei; Concentration 0.02%): +; activity (Burkholderia mallei; Concentration 0.05%): ++; activity (Burkholderia mallei; Concentration 0.1%): +++; solubility in water [6]: readily soluble in water; activity (Burkholderia stabilis; Concentration 0,2%): +++; activity (Burkholderia stabilis; Concentration 0.02%): +; activity (Burkholderia stabilis; Concentration 0.05%): ++; activity (Burkholderia stabilis; Concentration 0.1%): +++; activity (Burkholderia multivorans; Concentration 0,2%): +++; activity (Burkholderia multivorans; Concentration 0.02%): +; activity (Burkholderia multivorans; Concentration 0.05%): ++; activity (Burkholderia multivorans; Concentration 0.1%): +++; activity (Burkholderia cenocepacia; Concentration 0,2%): +++; activity (Burkholderia cenocepacia; Concentration 0.02%): +; activity (Burkholderia cenocepacia; Concentration 0.05%): ++; activity (Burkholderia cenocepacia; Concentration 0.1%): +++; activity (Burkholderia ambifaria; Concentration 0,2%): +++; activity (Burkholderia ambifaria; Concentration 0.02%): +; activity (Burkholderia ambifaria; Concentration 0.05%): ++; activity (Burkholderia ambifaria; Concentration 0.1%): +++; activity (Burkholderia cepacia [3]; Concentration 0,2%): +++; activity (Burkholderia cepacia [3]; Concentration 0.02%): +; activity (Burkholderia cepacia [3]; Concentration 0.05%): ++; activity (Burkholderia cepacia [3]; Concentration 0.1%): +++; activity (Burkholderia gladioli; Concentration 0,2%): +++; activity (Burkholderia gladioli; Concentration 0.02%): +; activity (Burkholderia gladioli; Concentration 0.05%): ++; activity (Burkholderia gladioli; Concentration 0.1%): +++; activity (Burkholderia dolosa; Concentration 0,2%): +++; activity (Burkholderia dolosa; Concentration 0.02%): +; activity (Burkholderia dolosa; Concentration 0.05%): ++; activity (Burkholderia dolosa; Concentration 0.1%): +++; activity (Burkholderia anthina; Concentration 0,2%): +++; activity (Burkholderia anthina; Concentration 0.02%): +; activity (Burkholderia anthina; Concentration 0.05%): ++; activity (Burkholderia anthina; Concentration 0.1%): +++
